Results as given in US9782424B2, “Synergistic combination comprising avermectins and a NSAID for tumor inhibition” (Ectin Research AB, priority 2011, dated 2017).
“Also recorded” adds a separate entry of the source.

Key:
[1] = test system: breast cell line (ZR-75-1); test: XTT-assay proliferation rate, breast cell line; assay type: cell-based, human; conditions: for Proliferation rate in per cent compared to untreated medium control: 2R-75-1 breast Ca; for Proliferation rate compared to untreated control: ZR-75-1 (Table 6)
Protocol: Commercially available human tumor cell lines were purchased from ATCC (ATCC/LGC-standards, Borás, Sweden). […] Briefly, ampoules of frozen cells were thawed by submerging into a 37° C. water bath for 45 s. […] With supernatant discarded, cell pellets were further resuspended with 5 ml complete medium into 25 cm^2 cell culture flasks (Cell+, Sarstedt, Nümbrecht, Germany). Tumor cells were cultured until sub-confluence and further sub-cultured with Trypsin (0.5%), EDTA (0.2%) solution (T4174, TE-10x, Sigma) in sterile sodium chloride. Culture media was changed two-three times a week. Culture flasks (Cell+, Sarstedt, Nümbrecht, Germany) and culture plates (Falcon/BD, Franklin Lakes, N.J., USA) were used for experimental set-ups. Cells were regularly monitored using an inverted microscope connected to a digital photo equipment (Axiovert 25 and Axiovision, Zeiss, Carl Zeiss AG, Germany) (FIG. 1). Described culture techniques and equipment have been used extensively in the laboratory
The proliferation rates of the different human tumor cell lines were studied using a method based on the conversion of a sodium salt (XTT-assay, Sigma) into a stable orange color that could be analyzed in a spectrophotometer. […] The color change was measured using a 96-well plate reader with software to calculate the absorbance at 450 nm (V-max/Softmax Pro, Molecular Devices, USA).
Increasing concentrations of substance ivermectin was added with an 8-channel pipette (Titertek, Kem-En-Tec, Taastrup, Denmark) together with sterile pipette tips (Molecular Bioproducts, San Diego, Calif., USA). Cell cultures including active substances were incubated for 24 hours (and 96 hours). Untreated wells including culture medium only served as untreated controls. The XTT-assay substrate was added and after gentle agitation using a micro plate shaker, absorbencies at 450 and 650 nm were measured. Levels from medium were subtracted and compared with control wells, using culture medium only.

[2] = test system: urinary bladder cells (UM-UC-3); test: Morphology of cultured tumor cells, UM-UC-3; assay type: cell-based, human; conditions: ivermectin 100 μM, 24 hours (FIG. 6)
Protocol: Commercially available human tumor cell lines were purchased from ATCC (ATCC/LGC-standards, Borás, Sweden). Cell lines from urinary bladder (UM-UC-3, #CRL-1749), colorectal carcinoma (Colo205, #CCL-222 and HT29, #HTB-38), prostate carcinoma (LNCaP, #CRL-1740) and breast carcinoma (ZR-75-1, #CRL-1500) were purchased and stored in liquid nitrogen. Cells were cultured in Roswell Park Memorial Institute media (RPMI-1640) or minimum essential medium with Earl's salts (EMEM) supplemented with 10% Foetal calf serum (FCS, Sigma) and cultured using a 37° C. cell culture incubator (Forma Scientific, NinoLab, Kungsbacka, Sweden) with 5% CO2 humidified atmosphere. Tumor cell lines were handled aseptically using a laminar airflow (LAF) bench (Holten 2448, Ninolab, Sweden) and stored in a liquid nitrogen tank and were initiated in culture as previously described (Falk P. Experimental models of the peritoneal environment: Effects of TGF-beta and Hyaluronan. Göteborg: University of Gothenburg; 2008). Briefly, ampoules of frozen cells were thawed by submerging into a 37° C. water bath for 45 s. Cells were resuspended in 10 ml of preheated RPMI-1640 with 10% FCS and centrifuged in 260 g for 10 min. […] Cells were regularly monitored using an inverted microscope connected to a digital photo equipment (Axiovert 25 and Axiovision, Zeiss, Carl Zeiss AG, Germany) (FIG. 1). […]

[3] = test system: advanced urothelial cancer with extensive metastasis; test: Case observation of a patient given ivermectin; assay type: in vivo, human; conditions: middle age person, standard treatment dosage for Strongyloidiasis, no other medication
From the text: The present studies are based on an observation describing a middle age person suffering from an advanced urothelial cancer with extensive metastasis. Due to a tropical infection (Strongyloidiasis) this patient received the substance ivermectin as a standard treatment dosage.
The present studies are based on a case report describing a middle age person suffering from an advanced urothelial cancer with extensive metastasis. Due to a tropical infection this patient received the substance ivermectin. […] The reason for this is not known however a direct effect of the substance ivermectin could not be precluded.

22,23-dihydroavermectin B1a+22,23-dihydroavermectin B1b [ivermectin]
Proliferation rate in per cent compared to untreated medium control ([1]; ivermectin 10e-9 mol/L): 114 ± 31% | Proliferation rate in per cent compared to untreated medium control ([1]; ivermectin 10e-8 mol/L): 128 ± 30% | Proliferation rate in per cent compared to untreated medium control ([1]; ivermectin 10e-7 mol/L): 105 ± 35% | Proliferation rate in per cent compared to untreated medium control ([1]; ivermectin 10e-6 mol/L): 95 ± 37% | Proliferation rate in per cent compared to untreated medium control ([1]; ivermectin 10e-5 mol/L): 124 ± 34% | Proliferation rate in per cent compared to untreated medium control ([1]; ivermectin 10e-4 mol/L): 7±2% | Proliferation rate compared to untreated control ([1]; IVM 1 μmol/L alone): 90.0 ± 5.2% | Proliferation rate compared to untreated control ([1]; IVM 10 μmol/L alone): 60.5 ± 10.6% | Proliferation rate compared to untreated control ([1]; IVM 100 μmol/L alone): 14.4 ± 1.7% | Effect on proliferation rate compared to untreated control ([1]; ZR-75-1, ivermectin 100 μM alone or in combination): reduced the proliferation rate | Effect on morphology [2]: affected | Clinical outcome of the urothelial cancer [3]: all the clinical signs of the urothelial cancer disappeared; also recorded: treated both the tropical infection and the urothelial cancer
